Data as given in article PMC8720025, “PTHG2 Reduces Bone Loss in Ovariectomized Mice by Directing Bone Marrow Mesenchymal Stem Cell Fate” (Stem Cells International, 2021).

Tests used:
[1] = CD spectroscopy, peptide helicity; type: physicochemical; details: 50 μM peptide in 50.0% TFE water solution, 25°C (legend: 20°C), from [θ]222
Experimental: CD parameters was collected on a JASCO J-820 spectropolarimeter (JASCO Corp., Ltd). […] The sample ellipticity data were collected at 25°C and 195 nm. The helicity of the polypeptide is calculated by the following formula [36, 37]. (1) α=θ222/ θmax×100%.
[θ]222 was the molar ellipticity at the absorption wavelength of 222 nm, [θ]max = ([…] + 250 T) (1 − K/N), K = 4, and N was the number of amino acids of the polypeptide (n = 34).

[2] = system: OVX-induced bone loss in mice; experiment: OVX-induced bone loss model (micro-CT, histology, qPCR); type: in vivo, C57/BL6 mice
[3] = system: CREB phosphorylation in BMSCs; experiment: Western blotting of CREB phosphorylation (cAMP-PKA signaling); type: cell-based, C57/BL6 mice
Experimental: The unstimulated group was the control group. After the stimulation, the cells were digested, and RIPA cell lysate (containing protein phosphatase inhibitors) was added and centrifuged. 30 μg protein was separated with SDS-PAGE. The proteins were then shifted to the nitrocellulose membrane using a trans-Blot Turbo Transfer System (Bio-Rad Laboratories, Hercules, CA, USA). Membrane was sealed with 5% bovine serum albumin (BSA) for 1 h. Membrane and specific primary antibody were incubated overnight at 4°C. Then, membrane was disposed with fluorescently labeled secondary Goat anti-Rabbit IgG Antibody (Dylight) for 1 hour at 25°C. The protein bands were imaged with a Bio-Rad visual imaging system (Bio-Rad Laboratories, Hercules, CA), and the relative protein expression was analyzed by Image J.

BMSCs [4] = experiment: In vitro adipogenesis assay of BMSCs; type: cell-based, C57/BL6 mice
BMSCs [5] = experiment: Cell cycle analysis by PI staining and flow cytometry; type: cell-based, C57/BL6 mice; details: PI staining, flow cytometry
Experimental: Cells were cultured with 10 μM BrdU for one hour and fixed in 70% ethanol at -20 C. After washing with phosphate/citric buffer (40 ml Na2HPO4 with 4 ml 0.1 M citric acid), the cells were incubated with anti-BrdU antibody for one hour, then stained with propidium iodide (PI). For PI/RNase staining, cells were incubated with 0.5 ml of PI/RNAse staining buffer (BD Pharmingen) at 25°C for 15 minutes, then analyzed by flow cytometry.

BMSCs [6] = experiment: CCK-8 cell viability assay; type: cell-based, C57/BL6 mice; details: concentrations below 100 μM, 48 h and 96 h, absorbance 450 nm
Experimental: BMSCs were extracted from the femoral and tibial marrow cavity of 5-week-old C57/BL6 mice and cultured in mouse bone marrow mesenchymal stem cell medium for 2-3 days. The new culture medium was changed until the adherent cells grew 95% confluence and cell passage, or subsequent experiments were carried out. The cell growth environment was 37°C, 5% CO2, and […].
Cell viability of BMSCs were tested using the CCK-8 (Dojindo Molecular Technology, Kumamoto, Japan) according to instruction. BMSCs were inoculated in a 96-well plate (5 × 10^3 cells per well) and hatched overnight. […] Then, cells were disposed with 10 μl of CCK-8 reagent for 2 hours. After incubation, the absorbance was measured at 450 nm in a Biotek Cytation 5 System (Biotek Instruments, Vermont, USA).

BMSCs [7] = experiment: In vitro osteogenesis assay of BMSCs; type: cell-based, C57/BL6 mice
[8] = system: heart, liver, spleen, lung, and kidney of mice; experiment: In vivo tissue toxicity test (H&E staining of organs); details: H&E staining after administration
Experimental: (a) BMSC cell viability as assessed by CCK-8 assay following treatment without or with indicated concentrations of PTHG2 for 48 and 96 h. […] (c) The relative expression of Cebp-α and Perilipin following PTHG2 treatment was quantified by real-time PCR. (d) After pretreatment with H89, BMSC differentiated and stained with Alizarin red for 21 days. Supplementary Material 2: H&E staining of the heart, liver, spleen, lung, and kidney after administration of normal saline, PTH, and PTHG2. Click here for additional data file.

[9] = 20/40 μg·kg−1 intraperitoneal daily for 8 weeks, compared with OVX group

Compound	helicity [1]	bone trabeculae number (Tb. N), micro-CT of femur [2, 9]	bone volume fraction (BV/TV), micro-CT of femur [2, 9]	phosphorylation level of CREB ([3]; BMSCs pretreated with H89-2HCl for 1 hour, then stimulated with PTH (1-34)/PTHG2 for 6 hours)	number of adipocytes (oil red staining) (BMSCs [4]; adipogenic conditioned medium, 21 days, compared with the control)	adipogenic gene protein expression (Fabp4/PPARɣ/Adiponectin) (BMSCs [4]; adipogenic differentiation, compared with control group)	effect on cell cycle (BMSCs [5])	toxicity to BMSCs (CCK-8) (BMSCs [6])	number of FABP4-positive cells (IHC, distal femur) [2]	OCN positivity, immunofluorescence of distal femur ([2]; 8 weeks of treatment)	number of lining cells on the trabecular bone surface (H&E) ([2]; 8 weeks of treatment, compared to the OVX group, n = 6 per group)	expression of OCN gene in bone mRNA (qPCR) ([2]; bone of the upper limb, compared with the OVX group)	inhibition of adipocyte generation (Fabp4 gene, qPCR) ([2]; compared with PTH (1-34))	number of adipocytes (vacuoles/cavitation) in H&E staining ([2]; metaphysis, compared with OVX group)	osteogenic differentiation activity of BMSCs (ALP staining) (BMSCs [7]; 10 nM, 6 h/day, osteogenic medium, 7 days)	expression of Runx2 gene (qPCR) (BMSCs [7]; 10 nM, osteogenic differentiation, compared with control group)	ALP and RUNX2 protein levels (Western blotting) (BMSCs [7]; osteogenic differentiation, 3, 7, and 10 days, compared to the control group)	phosphorylation level of CREB ([3]; BMSCs starved 1 hour, stimulated with 10 μM peptide for 6 hours, without H89-2HCl)	tissue toxicity to heart, liver, spleen, lung, and kidney [8]
CC[C@H](C)[C@H](NC(=O)[C@H](CCC(=O)O)NC(=O)[C@H](CO)NC(=O)[C@@H](NC(=O)[C@@H](N)CO)C(C)C)C(=O)N[C@@H](CCC(N)=O)C(=O)N[C@@H](CC(C)C)C(=O)N[C@@H](CCSC)C(=O)N[C@@H](Cc1c[nH]cn1)C(=O)N[C@@H](CC(N)=O)C(=O)N[C@@H](CC(C)C)C(=O)NCC(=O)N[C@@H](CCCCN)C(=O)N[C@@H](Cc1c[nH]cn1)C(=O)N[C@@H](CC(C)C)C(=O)N[C@@H](CC(N)=O)C(=O)N[C@@H](CO)C(=O)N[C@@H](CCSC)C(=O)N[C@@H](CCC(=O)O)C(=O)N[C@@H](CCCNC(=N)N)C(=O)N[C@H](C(=O)N[C@@H](CCC(=O)O)C(=O)N[C@@H](Cc1c[nH]c2ccccc12)C(=O)N[C@@H](CC(C)C)C(=O)N[C@@H](CCCNC(=N)N)C(=O)N[C@@H](CCCCN)C(=O)N[C@@H](CCCCN)C(=O)N[C@@H](CC(C)C)C(=O)N[C@@H](CCC(N)=O)C(=O)N[C@@H](CC(=O)O)C(=O)N[C@H](C(=O)N[C@@H](Cc1c[nH]cn1)C(=O)N[C@@H](CC(N)=O)C(=O)N[C@@H](Cc1ccccc1)C(=O)O)C(C)C)C(C)C [PTH (1-34), Teriparatide, reference compound]	38.5%	significantly increased	significantly increased																
O=S(=O)(NCCNC/C=C/c1ccc(Br)cc1)c1cccc2cnccc12 [H89-2HCL, H89-2HCl, reference compound]				not increased															
CC[C@H](C)[C@H](NC(=O)[C@H](CCC(=O)O)NC(=O)[C@H](CO)NC(=O)[C@@H](NC(=O)[C@@H](N)CO[C@@H]1O[C@H](CO)[C@@H](O)[C@H](O)[C@H]1NC(C)=O)C(C)C)C(=O)N[C@@H](CCC(N)=O)C(=O)N[C@@H](CC(C)C)C(=O)N[C@@H](CCSC)C(=O)N[C@@H](Cc1c[nH]cn1)C(=O)N[C@@H](CC(N)=O)C(=O)N[C@@H](CC(C)C)C(=O)NCC(=O)N[C@@H](CCCCN)C(=O)N[C@@H](Cc1c[nH]cn1)C(=O)N[C@@H](CC(C)C)C(=O)N[C@@H](CC(N)=O)C(=O)N[C@@H](CO)C(=O)N[C@@H](CCSC)C(=O)N[C@@H](CCC(=O)O)C(=O)N[C@@H](CCCNC(=N)N)C(=O)N[C@H](C(=O)N[C@@H](CCC(=O)O)C(=O)N[C@@H](Cc1c[nH]c2ccccc12)C(=O)N[C@@H](CC(C)C)C(=O)N[C@@H](CCCNC(=N)N)C(=O)N[C@@H](CCCCN)C(=O)N[C@@H](CCCCN)C(=O)N[C@@H](CC(C)C)C(=O)N[C@@H](CCC(N)=O)C(=O)N[C@@H](CC(=O)O)C(=O)N[C@H](C(=O)N[C@@H](Cc1c[nH]cn1)C(=O)N[C@@H](CC(N)=O)C(=O)N[C@@H](Cc1ccccc1)C(=O)O)C(C)C)C(C)C [PTHG2]	39.1%				did not increase	resemble to that of the control group	no effect	no toxicity	reduced	significant increase	significantly increased	significantly increased	same effect as PTH (1-34)	significantly reduced	significantly enhanced	higher than that in control group	significantly increased	increased	no toxicity
